Measurements as given in patent US20240294495A1, “COMPOUNDS THAT MEDIATE PROTEIN DEGRADATION AND METHODS OF USE THEREOF” (Monte Rosa Therapeutics, Inc., priority 2021, published 2024).

Columns and labels:
CRBN-DDB1 = CRBN-DDB1 (Homo sapiens, UniProt Q96SW2); assay: Compound binding to CRBN by HTRF assay; settings: CRBN-DDB1 2.5 nM, Cy5-Thalidomide 100 nM probe, 30 min incubation; read-out: HTRF Class (Cereblon binding, HTRF IC50)
Experimental: Compound activity was monitored in a Homogenous Time-Resolved Fluorescence (HTRF) assay using 1-[5-({2-[2-(2-{[2-(2,6-dioxopiperidin-3-yl)-1,3-dioxo-2,3-dihydro-1H-isoindol-4-yl]oxy}acetamido)ethoxy]ethyl}carbamoyl)pentyl]-3,3-dimethyl-2-[(1E,3E)-5-[(2E)-1,3,3-trimethyl-5-sulfo-2,3-dihydro-1H-indol-2-ylidene]penta-1,3-dien-1-yl]-3H-indol-1-ium-5-sulfonate as a fluorescent probe. Biochemical assays were conducted in Greiner white 384 well HiBase plates (Cat. No 784075-25) in 10 μL total volume. A one pot detection solution of CRBN-DDB1 (2.5 nM), Anti-His Terbium Cryptate Gold (1×, PerkinElmer Cat. #: 61HI2TLB), and Cy5-Thalidomide (100 nM, Tenova Cat.: T52461) was prepared in 20 mM HEPES, 20 mM NaCl, 0.2 mM TCEP, 0.2 mM EDTA, and 0.005% Tween20 was dispensed to each assay plate. Compounds were stored in dry, ambient temperatures at 10 mM. A 10-point, 1:3 dilution series was prepared from 10 mM stock concentrations in Echo-compatible LDV plates. 10 nL of each compound dilution series was dispensed into assays wells using an Echo 650 (Labcyte inc. USA). 10 nL of 10 mM Lenalidomide was transferred into the active-control wells for the assay and 10 nL of DMSO was transferred into the neutral-control wells. The assay was then allowed to incubate for 30 min at ambient temperature after transferring compound. Plate measurements were taken on a Pherastar FSX (BMG Labtech, Germany) using the HTRF Red filter (Ex. 337 nm, em1: 620 nm, em2: 665 nm) (Flashes: 50, Integration time: 60-400 us, Z-height: 10 mm, Ratio-multiplier: 10,000). The HTRF signal was then subsequently normalized to the neutral and active controls. Analysis and IC50 values were derived using KNIME analytics (KNIME Zurich) transformation and fitting within Collaborative Drug Discovery (Collaborative Drug Discovery USA). Ki was derived from the geometric mean of the IC50 values using the Cheng-Prustoff transformation.
(§1) In Table 2, each compound is assigned a class (HTRF class) indicating the ability for Cereblon binding by means of their HTRF IC50 values according to Example 3: A, B or C. According to the code, A represents an IC50 value of <100 nM, B represents an IC50 value>100 nM and <1000 nM, C represents an IC50 value>1000 nM. IF Class assigns each compound a code indicating the ability for GSPT1 degradation: A, B or C. According to the code, A represents a DC50 value of <30 nM, B represents a DC50 value>30 nM and <300 nM and C represents a DC50 value of >300 nM.

GSPT1 = molecular target: T1, GSPT1 (Homo sapiens, UniProt P15170+Q96SW2); assay: Immunofluorescence assay for GSPT1 degradation in CAL-51 cells; assay type: cell-based; settings: 6 h treatment, read-out: IF Class (GSPT1 degradation, DC50)
T1 construct: CAL-51 cells were purchased from DSMZ (cat. Number ACC302); endogenous in cells; host or cells: CAL-51 (DSMZ ACC302)
T1 sequence (P15170 whole entry): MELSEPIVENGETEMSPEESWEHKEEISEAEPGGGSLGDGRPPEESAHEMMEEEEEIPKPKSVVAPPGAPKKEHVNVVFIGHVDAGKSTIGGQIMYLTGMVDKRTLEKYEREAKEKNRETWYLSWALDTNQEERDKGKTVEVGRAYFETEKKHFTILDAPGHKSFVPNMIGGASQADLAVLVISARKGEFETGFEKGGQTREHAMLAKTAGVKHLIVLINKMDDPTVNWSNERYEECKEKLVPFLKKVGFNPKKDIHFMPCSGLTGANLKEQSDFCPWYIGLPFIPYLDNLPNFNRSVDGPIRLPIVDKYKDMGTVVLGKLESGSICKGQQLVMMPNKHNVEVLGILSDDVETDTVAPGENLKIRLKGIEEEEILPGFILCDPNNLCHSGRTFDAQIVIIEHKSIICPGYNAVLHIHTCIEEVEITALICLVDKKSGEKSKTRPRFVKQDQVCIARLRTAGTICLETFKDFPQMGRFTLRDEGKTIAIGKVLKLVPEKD
T1 sequence (Q96SW2 whole entry): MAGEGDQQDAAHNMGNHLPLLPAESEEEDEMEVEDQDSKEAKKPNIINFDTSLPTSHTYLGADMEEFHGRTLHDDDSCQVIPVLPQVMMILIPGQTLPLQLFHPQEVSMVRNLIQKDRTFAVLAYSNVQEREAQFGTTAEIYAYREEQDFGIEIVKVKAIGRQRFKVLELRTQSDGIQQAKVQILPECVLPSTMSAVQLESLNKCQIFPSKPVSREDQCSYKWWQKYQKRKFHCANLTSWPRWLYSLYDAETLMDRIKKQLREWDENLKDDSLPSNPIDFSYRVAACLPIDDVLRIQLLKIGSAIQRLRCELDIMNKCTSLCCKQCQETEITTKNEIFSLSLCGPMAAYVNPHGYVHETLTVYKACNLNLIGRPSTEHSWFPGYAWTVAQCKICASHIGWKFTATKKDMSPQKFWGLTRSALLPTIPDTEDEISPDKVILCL
T1 sequence (Q16531 2-1140 partner limits assumed): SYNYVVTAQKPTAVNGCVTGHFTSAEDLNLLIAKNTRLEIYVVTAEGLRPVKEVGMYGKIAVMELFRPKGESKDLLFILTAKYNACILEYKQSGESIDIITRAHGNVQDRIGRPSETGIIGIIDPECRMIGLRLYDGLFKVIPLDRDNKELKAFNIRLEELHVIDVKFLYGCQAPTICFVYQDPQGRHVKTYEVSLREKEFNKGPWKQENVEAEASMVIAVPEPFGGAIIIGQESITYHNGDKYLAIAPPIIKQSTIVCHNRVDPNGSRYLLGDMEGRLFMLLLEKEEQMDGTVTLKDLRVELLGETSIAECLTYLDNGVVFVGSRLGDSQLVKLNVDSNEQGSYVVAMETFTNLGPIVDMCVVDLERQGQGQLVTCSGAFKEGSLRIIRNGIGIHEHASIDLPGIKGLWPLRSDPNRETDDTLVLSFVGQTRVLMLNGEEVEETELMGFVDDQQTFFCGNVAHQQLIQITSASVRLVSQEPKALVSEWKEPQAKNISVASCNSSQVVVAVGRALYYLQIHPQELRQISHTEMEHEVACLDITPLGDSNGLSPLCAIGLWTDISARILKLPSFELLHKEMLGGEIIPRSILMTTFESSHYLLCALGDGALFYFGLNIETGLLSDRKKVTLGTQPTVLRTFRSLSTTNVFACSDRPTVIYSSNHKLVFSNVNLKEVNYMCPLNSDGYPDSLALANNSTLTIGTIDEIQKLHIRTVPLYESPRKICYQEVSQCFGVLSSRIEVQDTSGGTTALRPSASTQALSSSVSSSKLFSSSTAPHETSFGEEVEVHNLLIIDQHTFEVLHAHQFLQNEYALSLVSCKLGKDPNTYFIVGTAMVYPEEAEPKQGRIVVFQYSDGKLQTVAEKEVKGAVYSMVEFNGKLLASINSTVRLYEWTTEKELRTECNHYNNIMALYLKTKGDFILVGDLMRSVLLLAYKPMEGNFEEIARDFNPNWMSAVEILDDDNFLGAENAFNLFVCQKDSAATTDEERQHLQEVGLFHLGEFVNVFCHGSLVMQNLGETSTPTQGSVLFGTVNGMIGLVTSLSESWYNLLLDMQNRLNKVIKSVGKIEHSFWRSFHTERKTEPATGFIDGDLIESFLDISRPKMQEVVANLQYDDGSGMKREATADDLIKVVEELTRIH
Experimental: The representative compounds were tested in an immunofluorescence assay for their activity to degrade GSPT1. CAL-51 cells were purchased from DSMZ (cat. Number ACC302), sub-cultured in 90% Dulbecco's MEM (4.5 g/L glucose, Gibco 11965)+10% heat inactivated FBS (BioConcept, 2-01F136I) and incubated at 37° C., 5% CO2. For the assay imaging microtiter plate Cell Carrier 96 Ultra (Perkin Elmer 6055302) were pre-coated with Fibronectin (Sigma F085, 30 μl at 0.2 μg/mL) in PBS (100 μL, Gibco 14190) for 45 min at room temperature, rinsed with PBS and CAL-51 cells (30K cells/well) were plated and let to adhere overnight. Cells were treated with compounds typically using a serial dilution ranging from 30 μM to 0.1 nM for 6 h. Compounds were stored at 10 mM DMSO stocks. Vehicle (DMSO), positive (CC-885, 10 μM) and rescue controls (positive control plus 0.2 μM bortezomib) were also included at this stage. Cells were subsequently rinsed with PBS and fixed in 10% Formalin solution (50 μl, Sigma HT5011)) for 20 min at room temperature. Following three consecutive PBS washes (100 μL), cells were permeabilized in 0.1% Triton X-100 in PBS (Sigma 93443, 50 μl) for 15 min at room temperature. Following three further PBS washes, 50 μl blocking buffer (1% BSA, Sigma A4503, in PBS) was added for 45 min for signal-to noise reduction. Primary antibody (human GSPT1, Sigma HPA052488) was diluted in blocking buffer (dil.1/300, 35 μL/well) and incubated with the cells overnight at 4° C. After three PBS washes, Alexa-fluor 488 coupled secondary antibodies (Invitrogen, A32731, dil.1/1000), Alexa-fluor 647-Phalloidin (Invitrogen, A22287, dil.1/200) and DAPI (Thermo, #62248, dil.1/1000) were diluted in blocking buffer and incubated with the samples for 2 h at room temperature. After three final PBS washes, samples were conserved in 100 μL PBS in the dark, until measurement. Image acquisition was performed on the Operetta High-Content Imager (Perkin-Elmer). Fluorescence intensity of […] (GSPT1), Alexa-Fluor 647 (Actin) and DAPI (Nucleus) were measured. For the determination of GSPT1 DC50 values, a custom algorithm implemented in the PerkinElmer image analysis software Harmony-Acapella® was developed. After user-defined setting of adjustment parameters, the analysis was run identically without human intervention for all image fields. DAPI staining of the nuclei was used to determine the location of cells using standard nuclei detection modules. Segmentation artifacts were removed by threshold-based filters for area, roundness and intensity. The outline of the cells was determined analogously from the sum of the normalized, smoothed DAPI and Actin channel, starting from each nucleus. The Alexa-Fluor 488 (GSPT1) signal intensity in each cell was finally measured, in order to obtain a Mean intensity per cell. GSPT1 degradation (DC50) was calculated after normalization to controls and data import in CDD vault Database, using non-linear regression.
as §1

Sequence of CRBN-DDB1 (Q96SW2 whole entry): as the sequence (Q96SW2 whole entry) above
Sequence of CRBN-DDB1 (Q16531 whole entry partner): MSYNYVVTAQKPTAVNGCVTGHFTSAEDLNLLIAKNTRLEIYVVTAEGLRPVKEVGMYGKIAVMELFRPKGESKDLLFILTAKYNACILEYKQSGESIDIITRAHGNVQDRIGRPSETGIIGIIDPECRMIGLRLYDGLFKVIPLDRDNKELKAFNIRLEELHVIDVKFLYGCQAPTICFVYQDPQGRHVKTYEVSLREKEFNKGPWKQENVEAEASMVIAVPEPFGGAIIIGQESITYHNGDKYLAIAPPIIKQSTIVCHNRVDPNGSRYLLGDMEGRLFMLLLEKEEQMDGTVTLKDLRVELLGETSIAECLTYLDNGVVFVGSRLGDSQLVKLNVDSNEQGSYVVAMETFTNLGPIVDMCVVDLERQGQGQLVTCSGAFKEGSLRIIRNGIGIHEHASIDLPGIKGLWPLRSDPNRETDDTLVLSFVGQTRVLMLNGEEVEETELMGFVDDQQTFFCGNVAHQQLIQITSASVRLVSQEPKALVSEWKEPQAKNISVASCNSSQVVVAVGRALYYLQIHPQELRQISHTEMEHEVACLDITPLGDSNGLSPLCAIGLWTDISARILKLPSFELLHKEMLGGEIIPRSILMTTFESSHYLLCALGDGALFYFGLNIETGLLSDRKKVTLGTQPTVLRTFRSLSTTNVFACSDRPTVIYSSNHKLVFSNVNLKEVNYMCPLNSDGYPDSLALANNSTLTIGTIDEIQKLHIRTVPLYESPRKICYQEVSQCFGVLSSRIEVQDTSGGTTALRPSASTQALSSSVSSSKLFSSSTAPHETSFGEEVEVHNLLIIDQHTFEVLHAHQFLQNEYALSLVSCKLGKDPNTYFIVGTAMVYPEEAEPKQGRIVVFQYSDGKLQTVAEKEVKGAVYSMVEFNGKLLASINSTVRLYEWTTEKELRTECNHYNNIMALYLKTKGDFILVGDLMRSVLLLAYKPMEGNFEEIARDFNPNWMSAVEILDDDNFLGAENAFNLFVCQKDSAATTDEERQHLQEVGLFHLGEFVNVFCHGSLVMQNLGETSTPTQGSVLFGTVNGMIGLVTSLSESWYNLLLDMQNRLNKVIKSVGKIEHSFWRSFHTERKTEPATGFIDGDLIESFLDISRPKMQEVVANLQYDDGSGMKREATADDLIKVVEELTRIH

SMILES	IC50 (CRBN-DDB1) [nM]	DC50 (GSPT1) [nM]
N#Cc1ccc(CC(=O)NC2CN(c3cc(F)c(C4CCC(=O)NC4=O)c(F)c3)C2)c(Cl)c1 (stereo not drawn) [Compound 1, 2-(2-chloro-4-cyanophenyl)-N-(1-(4-(2,6-dioxopiperidin-3-yl)-3,5-difluorophenyl)azetidin-3-yl)acetamide]	100 to 1000	> 300
O=C1CCC(c2c(F)cc(N3CC(NC(=O)CC4CCC4)C3)cc2F)C(=O)N1 (stereo not drawn) [Compound 2, 2-cyclobutyl-N-(1-(4-(2,6-dioxopiperidin-3-yl)-3,5-difluorophenyl)azetidin-3-yl)acetamide]	100 to 1000	> 300
Cc1cc(NC(=O)CC2CN(c3cc(F)c(C4CCC(=O)NC4=O)c(F)c3)C2)ccc1Cl (stereo not drawn) [Compound 3, N-(4-chloro-3-methylphenyl)-2-(1-(4-(2,6-dioxopiperidin-3-yl)-3,5-difluorophenyl)azetidin-3-yl)acetamide]	100 to 1000	< 30
O=C1CCC(c2c(F)cc(N3CC(NC(=O)Cc4cc(Cl)c(F)cc4F)C3)cc2F)C(=O)N1 (stereo not drawn) [Compound 4, 2-(5-chloro-2,4-difluorophenyl)-N-(1-(4-(2,6-dioxopiperidin-3-yl)-3,5-difluorophenyl)azetidin-3-yl)acetamide]	100 to 1000	< 30
Cc1cc(F)c(NC(=O)CC2CN(c3cc(F)c(C4CCC(=O)NC4=O)c(F)c3)C2)cc1Cl (stereo not drawn) [Compound 5, N-(5-chloro-2-fluoro-4-methylphenyl)-2-(1-(4-(2,6-dioxopiperidin-3-yl)-3,5-difluorophenyl)azetidin-3-yl)acetamide]	100 to 1000	< 30
O=C1CCC(c2c(F)cc(N3CC(CC(=O)Nc4ccc(F)c(OC(F)F)c4)C3)cc2F)C(=O)N1 (stereo not drawn) [Compound 6, N-(3-(difluoromethoxy)-4-fluorophenyl)-2-(1-(4-(2,6-dioxopiperidin-3-yl)-3,5-difluorophenyl)azetidin-3-yl)acetamide]	100 to 1000	30 to 300
Cc1cc(F)cc(CC(=O)NC2CN(c3cc(F)c(C4CCC(=O)NC4=O)c(F)c3)C2)c1 (stereo not drawn) [Compound 7, N-(1-(4-(2,6-dioxopiperidin-3-yl)-3,5-difluorophenyl)azetidin-3-yl)-2-(3-fluoro-5-methylphenyl)acetamide]	100 to 1000	> 300
O=C1CCC(c2c(F)cc(N3CC(NC(=O)Cc4cc(F)cc(F)c4)C3)cc2F)C(=O)N1 (stereo not drawn) [Compound 8, 2-(3,5-difluorophenyl)-N-(1-(4-(2,6-dioxopiperidin-3-yl)-3,5-difluorophenyl)azetidin-3-yl) acetamide]	100 to 1000	> 300
O=C1CCC(c2c(F)cc(N3CC(CC(=O)Nc4cc(OC(F)(F)F)ccc4F)C3)cc2F)C(=O)N1 (stereo not drawn) [Compound 9, 2-(1-(4-(2,6-dioxopiperidin-3-yl)-3,5-difluorophenyl)azetidin-3-yl)-N-(2-fluoro-5-(trifluoromethoxy)phenyl)acetamide]	100 to 1000	< 30
O=C1CCC(c2c(F)cc(N3CC(NC(=O)Cc4ccc(Cl)cn4)C3)cc2F)C(=O)N1 (stereo not drawn) [Compound 10, 2-(5-chloropyridin-2-yl)-N-(1-(4-(2,6-dioxopiperidin-3-yl)-3,5-difluorophenyl)azetidin-3-yl)acetamide]	< 100	> 300
O=C1CCC(c2c(F)cc(N3CC(NC(=O)Cc4ccc(F)cc4F)C3)cc2F)C(=O)N1 (stereo not drawn) [Compound 11, 2-(2,4-difluorophenyl)-N-(1-(4-(2,6-dioxopiperidin-3-yl)-3,5-difluorophenyl)azetidin-3-yl)acetamide]	100 to 1000	< 30

The next lines start with the values.

IC50 (CRBN-DDB1) [nM]	DC50 (GSPT1) [nM]	SMILES
–	> 300	O=C1CCC(c2ccc(N3CC(NC(=O)Cc4ccc(Cl)cc4)C3)cc2Cl)C(=O)N1 (stereo not drawn) [Compound 34, N-(1-(3-chloro-4-(2,6-dioxopiperidin-3-yl)phenyl)azetidin-3-yl)-2-(4-chlorophenyl)acetamide]
–	> 300	O=C1CCC(c2ccc(N3CC(NC(=O)C(F)(F)c4ccc(Cl)cc4)C3)cc2Cl)C(=O)N1 (stereo not drawn) [Compound 35, N-(1-(3-chloro-4-(2,6-dioxopiperidin-3-yl)phenyl)azetidin-3-yl)-2-(4-chlorophenyl)-2,2-difluoroacetamide]
–	> 300	O=C1CCC(c2c(F)cc(N3CC(NC(=O)C(F)(F)c4ccc(Cl)cc4)C3)cc2F)C(=O)N1 (stereo not drawn) [Compound 37, 2-(4-chlorophenyl)-N-(1-(4-(2,6-dioxopiperidin-3-yl)-3,5-difluorophenyl)azetidin-3-yl)-2,2-difluoroacetamide]
–	< 30	Cc1c(Cl)cc(NC(=O)CC2CN(c3cc(F)c(C4CCC(=O)NC4=O)c(F)c3)C2)cc1CN1CCOCC1 (stereo not drawn) [Compound 38, N-(3-chloro-4-methyl-5-(morpholinomethyl)phenyl)-2-(1-(4-(2,6-dioxopiperidin-3-yl)-3,5-difluorophenyl)azetidin-3-yl)acetamide]
–	30 to 300	O=C1CCC(c2c(F)cc(N3CC(CC(=O)Nc4cccc(OC(F)(F)F)c4)C3)cc2F)C(=O)N1 (stereo not drawn) [Compound 39, 2-(1-(4-(2,6-dioxopiperidin-3-yl)-3,5-difluorophenyl)azetidin-3-yl)-N-(3-(trifluoromethoxy)phenyl)acetamide]
–	30 to 300	N#Cc1cc(Cl)cc(CC(=O)NC2CN(c3cc(F)c(C4CCC(=O)NC4=O)c(F)c3)C2)c1 (stereo not drawn) [Compound 44, 2-(3-chloro-5-cyanophenyl)-N-(1-(4-(2,6-dioxopiperidin-3-yl)-3,5-difluorophenyl)azetidin-3-yl)acetamide]
–	> 300	O=C1CCC(c2c(F)cc(N3CC(CC(=O)Nc4cc(F)cc(OC(F)F)c4)C3)cc2F)C(=O)N1 (stereo not drawn) [Compound 45, N-(3-(difluoromethoxy)-5-fluorophenyl)-2-(1-(4-(2,6-dioxopiperidin-3-yl)-3,5-difluorophenyl)azetidin-3-yl)acetamide]
100 to 1000	–	O=C1CCC(c2c(F)cc(N3CC(NC(=O)c4cc(Cl)ccc4F)C3)cc2F)C(=O)N1 (stereo not drawn) [Compound 46, 5-chloro-N-(1-(4-(2,6-dioxopiperidin-3-yl)-3,5-difluorophenyl)azetidin-3-yl)-2-fluorobenzamide]
